This is an account of results in paper PMC5677254, “Design, Synthesis, and Characterization of N-Oxide-Containing Heterocycles with in Vivo Sterilizing Antitubercular Activity” (Journal of Medicinal Chemistry, 2017).

For one data set, the system named is M. tuberculosis H37Rv. Briefly: Microarray gene expression analysis. In kind it is cell-based, Mycobacterium tuberculosis. To be noted: 4 h of exposure at 2× MIC, versus vehicle.
In data set [1] the test system is cytochrome P450 isoforms (all isoforms tested). Briefly: in vitro. To be noted: human, microsomes.
In data set [2] the test system is Candida albicans (ATCC 10231). Briefly: Spectrum of activity, OD570 after 48 h. To be noted: ATCC10231, read-out: MIC90 (antimicrobial activity). It counts as cell-based. How it is done: (§1) Determination of Minimal Inhibitory Concentration (MIC90) Against Bacteria in Dormant […]
(§2) The selective compounds (SI ≥ 10) were tested against the mycobacterium in a dormant state. The cultures were thawed, diluted in Middlebrook 7H12 broth, and sonicated for 5 s. The cultures were diluted to obtain the concentration between […] and 2 × 10^6 CFU/mL. TwoHfold serial dilutions of the compounds were prepared in a volume of […] in white 96Hwell microtiter plates, followed by the addition of […] of the cell suspension. The microplate cultures were placed under anaerobic conditions (oxygen concentration less than 0.16%) by using an Anoxomat model WS8080 (MART Microbiology) followed by two cycles of evacuation and filling with a mixture of 10% hydrogen (H2), 5% carbon dioxide (CO2), and the balance with nitrogen (N2). An anaerobic indicator strip was placed inside the chamber to visually confirm the removal of oxygen. The plates were incubated at 37°C for 10 days and then transferred to an ambient gaseous condition (5% CO2H enriched air) incubator for a 28 h “recovery.” On day 11 (after the 28Hh aerobic recovery), we determined the luminescence and calculated the MIC90.4
(§3) To establish the spectrum activity, we determined the MIC90 against E. coli (ATCC 25922) and S. aureus (ATCC 29213) by measuring the optical density at 570 nm after 16 h of incubation in Mueller–Hinton II broth (Becton Dickinson, Sparks; Maryland, United States) and against C. albicans (ATCC 10231) at OD570 after 48 h in Cellgro RPMI 1640 medium (Mediatech Inc., Manassas, Virginia, United States). The MIC was defined as the lowest concentration resulting in 90% reduction in absorption relative to that of untreated control cultures.
(§4) Determination of Minimal Inhibitory Concentration Against Isogenic Monoresistant Strains

Data set [3] concerns BALB/c mice. To be noted: H&E, group treated with compound 8.
Data set [4] relates to M. tuberculosis H37Rv (ATCC 27294) in J774A.1 macrophages. Description: Intramacrophage activity. In kind it is cell-based, Mycobacterium tuberculosis.
The test system of a further data set is M. tuberculosis Erdman. Description: Infection and treatment: efficacy against acute TB in mice. In kind it is in vivo, mouse. To be noted: 200 mg/kg in microemulsion, once daily oral gavage, 5 days/week, day 10 to 29 postinfection, BALB/c mice.
A short description of data set [5]: Cytotoxicity against MRC-5 cell line. To be noted: human, cytotoxicity IC50, MRC-5 cell line.
The test system of data set [6] is BALB/c mice. Description: Tolerability test in BALB/c mice and toxicological analysis. To be noted: 10 days.
Data set [7] relates to Escherichia coli (ATCC 25922). Description: Spectrum of activity, OD570 after 16 h. To be noted: ATCC25922, read-out: MIC90 (antimicrobial activity). It counts as cell-based. How it is done: as §1, §2, §3, §4
For data set [8], the system named is Staphylococcus aureus (ATCC 29213). Briefly: Spectrum of activity, OD570 after 16 h. In kind it is cell-based. To be noted: ATCC29213, read-out: MIC90 (antimicrobial activity). How it is done:
as §1, §2, §3, §4

In the next data set the test system is Mtb H37Rv (ATCC 27294). Description: Resazurin microtiter assay (REMA), MIC90 against bacteria in active state. It counts as cell-based. To be noted: Mycobacterium tuberculosis. On the technique in general: The colour change of resazurin is a common sign of viable cells or microbes.
Data set [9] deals with mouse peripheral blood reticulocytes. To be noted: 50, 100, 200 and 500 mg/kg by gavage, Swiss mice.
In another data set the test system is human plasma. Briefly: Plasma protein binding assay (rapid equilibrium dialysis). It counts as in vitro ADME. To be noted: 5 µM, 4 h at 37°C. How it is done: (§5) In vitro hydrolysis was performed by HPLC method using a Shimadzu HPLC model CBMH20A (Shimadzu®) and an Agilent® Eclipse XDB C18 column (250 × 4.6 mm, 5 µm). The isocratic flow was 60:40 (water:acetonitrile, v/v) and the flow rate was 1.0 mL/min. The volume injected was 20.0 µL and the wavelength in the detector (UVHVIS) was 210 nm. […]
(§6) of 100 µg/mL. This solution was then diluted to 20 µg/mL using two different PBS buffers to provide the following pH values: 5.5 and 7.4. During the assay, all samples were maintained at constant agitation using a shaker (400 rpm) at 37°C. The aliquots were taken from the solution at the following times: 0, 1, 2, 4, 8, 10, 20, and 24 h. All analyses were conducted in triplicate, and the results were expressed as the averages of the concentrations in percentages (±standard error of the […]
(§7) Plasma Protein Binding Assay […]
of the mixture in a RED (Rapid Equilibrium Dialysis, Pierce) device against PBS and incubated on an orbital shaker for 4 h at 37°C. Aliquots from plasmaH and PBSHbased samples were collected, an equal volume of PBS was added to the plasma sample, and an equal volume of plasma was added to the PBS sample. […] The samples were centrifuged and the supernatant was recovered and analyzed by Liquid chromatography–mass spectrometry (LCHMS)/MS. […]

A short description of data set [10]: Caco-2 permeability assay. To be noted: human, basolateral to apical. In kind it is in vitro ADME. How it is done: as §5, §6, §7
(§8) of the mixture in a RED (Rapid Equilibrium Dialysis, Pierce) device against PBS and incubated on an orbital shaker for 4 h at 37°C. […] The samples were centrifuged and the supernatant was recovered and analyzed by Liquid chromatography–mass spectrometry (LCHMS)/MS. […]
(§9) the twoHday interval. […] Similarly, for basolateral to apical (B→A) permeability, the compound was added to the B side and the amount of permeation was determined on the A side. […]
Background: Caco-2 cells form a polarised layer with tight junctions and transporters.

The test system of the next data set is Caco-2 cells. Description: Caco-2 permeability assay. It counts as in vitro ADME. How it is done:
as §5, §6, §7, §8, §9

In data set [11] the test system is M. tuberculosis H37Rv (ATCC 27294). Briefly: Time-kill curves (bactericidal kinetics). In kind it is cell-based, Mycobacterium tuberculosis.
The mark [12] stands for this setting: 200 mg/kg daily oral, vs control group.

Each structure is given as a SMILES string. pIC50: −log10 of the molar value. ≈ marks a conversion by molar mass, not a printed value. Where “and” joins values, the source holds several entries; their conditions need not be identical. Equal entries are not always repeated. Entries after “also recorded” stand apart in the source; their conditions may differ. Where two headings read alike, the source gives them in different places.

Turning to `O=C(N/N=C/c1ccc2no[n+]([O-])c2c1)c1ccncc1` [Compound 8, (E)-6-((2-Isonicotinoylhydrazono)methyl)benzo[c][1,2,5]oxadiazole 1-Oxide], the “effect on gene expression” value with M. tuberculosis H37Rv is “significant upregulation in the majority of ribosomal genes as well as all genes encoding subunits of ATP synthase”. In data set [1], this molecule gave a negative-log IC50 (pIC50) of under 4.82. Moreover, the MIC90 is over 200 µM in data set [2]; over 200 µM in data set [7]; over 200 µM in data set [8]; 1.1 µM and 0.31 µg/mL with Mtb H37Rv (ATCC 27294) (actively replicating M. tuberculosis H37Rv, REMA, read-out: MIC90); 1.1 µM (≈ 0.312 µg/mL) in the data set on Mtb H37Rv (ATCC 27294) (supplementary CSV, read-out: Mtb MIC90). Further, the histology of kidneys entry with BALB/c mice [3] is reported as “morphologically normal”. In addition, the intracellular inhibition result in data set [4] is recorded as “around 90%”. In the data set with M. tuberculosis Erdman, the “Mtb colonies (CFU) in homogenized lungs” value is given as “reduction of Mtb to undetectable levels; also recorded: no colonies were observed; also recorded: No detectable Mtb”. The molecule also registered an IC50 in data set [5] of 147 µg/mL (≈ 519 µM). Further, in the data set on BALB/c mice [6] (200 mg/kg daily oral gavage), the “behavior parameters (hippocratic screening)” value is “No significant variation in the behavior”. Also, in the data set on BALB/c mice [6] (setting [12]), the “alanine aminotransferase in plasma” value was “no significant differences”. The “alkaline phosphatase in plasma” value in the data set with BALB/c mice [6] (setting [12]) was “no significant differences”. For the same molecule, the “aspartate aminotransferase in plasma” value in the data set on BALB/c mice [6] (setting [12]) was “no significant differences”. For the same molecule, the “changes in the weight of organs (heart, lungs, spleen, kidneys, liver)” value with BALB/c mice [6] (setting [12]) was “No statistically significant difference”. The “genotoxicity (micronucleated reticulocytes)” value in [9] is “not genotoxic at any concentration tested”. Further, the “human plasma protein binding (% free)” value in the data set with human plasma came to 46.5 % free. The molecule also had a Papp B→A in data set [10] of 3.9 ×10⁻⁶ cm/s. Besides, the Caco-2 permeability profile entry in the data set on Caco-2 cells was “good permeability profile”. Also, the “reduction of CFU (sterilization of cultures)” value in data set [11] (after 48 h of exposure, 41.24 μM) is on record as about 6.7 log10. In addition, the bactericidal profile result in data set [11] (time-kill kinetic experiments up to 15 days) is recorded as “bactericidal with an early bactericidal effect”.

One may read the pIC50 as the IC50 on a negative log10 scale, so that one unit is a factor of ten. Lower therefore signals a high IC50. The MIC90 is the lowest concentration that inhibits either 90% of growth or 90% of the strains tested, depending on the study. A word on the IC50: it is the concentration needed to halve the response being measured. Read a low IC50 as greater potency in that assay. What is called Papp B→A is how fast a substance crosses the layer from the basolateral side.
